Structures can show the parent of a compound that is named as a salt.
Assays:
[1] = Phase 1 crossover relative bioavailability study, Part 2: fedratinib plasma PK; format: in vivo, human; conditions: for AUC0-∞: geometric mean, one participant excluded (pAUCe >20%); for AUC0-t / Cmax: n = 30, geometric mean, plasma
Experimental: (§1) An open-label, single-site, 2-part crossover study will be conducted in healthy adult subjects. This study will evaluate the RBA of 400 mg fedratinib when administered orally as contents of capsules dispersed in a nutritional supplement or via NG tube or administered orally as intact capsules with a nutritional supplement as a divided dose (200 mg BID) in comparison to intact capsules with a nutritional supplement. Each study part will consist of a randomized, multiple-sequence, open-label design. The study parts can be run in any order or in parallel. Subjects may participate in 1 part only. Each study part will consist of Screening, a Treatment phase (including baseline), and a Follow-up phone call. There will be a washout period of at least 12 days between each dose of fedratinib.
(§2) Part 2 will consist of a randomized, 3-period, 6-sequence, open-label design. Subjects will be screened for eligibility. Subjects who meet all inclusion criteria and none of the exclusion criteria will return to the study center on Day-1 for protocol-specified assessments and the start of domiciling; subjects will remain domiciled at the study center throughout all study periods.
(§3) On the evening before each dosing, all subjects will begin an overnight fast of at least 10 hours prior to dosing. No food or beverages (except water and any nutritional supplement administered with IP) will be allowed for at least 4 hours after dosing. Water is allowed as desired except for 1 hour before and 1 hour after each dosing. Each dose, with the exception of Treatment 2B, will be administered orally with approximately 240 mL noncarbonated, room temperature water. Dose modifications or interruptions are not permissible in this study.
Each subject will receive the following treatments across 3 study periods: • Treatment 2A=oral administration of a single 400-mg dose of fedratinib (4×100-mg capsules) with a nutritional supplement (reference) • Treatment 2B=a single 400-mg dose of fedratinib, administered via NG tube as contents from 4×100-mg capsules dispersed into a nutritional supplement (test) • Treatment 2C=oral administration of 400-mg fedratinib with a nutritional supplement, given as a divided dose (i.e., BID [2×100-mg capsules each]) (test)
Prior to administration of Treatment 2B, a nasogastric tube will be placed and an X-ray(s) will be performed to confirm correct placement of the nasogastric tube. Following administration of Treatment 2B, the nasogastric tube will be flushed with a volume of sterile water for irrigation equal to approximately 60 mL. Lidocaine gel or a suitable therapeutic equivalent may be used to reduce participant discomfort during the nasogastric tube insertion procedure. The timing from start of the nasogastric tube placement to dosing will be up to 4 hours. Actual time of dose administration will be referred to as “0 hour.”
(§4) All planned doses will be administered with a commercially available nutritional supplement (e.g., Ensure Plus® or Boost Plus®). The chosen nutritional supplement will be used throughout the study. The volume of nutritional supplement to be administered with each dose will be (e.g., approximately 180 mL).
(§5) Blood samples (approximately 3 mL each) for the measurement of fedratinib concentrations in plasma will collected at the following time points: • Treatment 1A, 1B, 2A and 2B: pre dose (0 hour) and at 0.5, 1, 1.5, 2, 3, 4, 6, 8, 12, 24, 48, 72, 120, 168, 192, and 240 hours post dose. • Treatment 2C: pre dose (0 hour) and at 0.5, 1, 1.5, 2, 3, 4, 6, 8, 12 (pre dose of the second dose), 12.5, 13, 13.5, 14, 15, 16, 18, 24, 48, 72, 120, 168, 192, and 240 hours post dose of the first dose.
(§6) Fedratinib plasma PK concentrations will be measured using a validated liquid chromatography tandem mass spectrometry assay
Fedratinib plasma PK parameters will be calculated using noncompartmental methods. […]

[2] = system: patient-derived cell lines expressing JAK2V617F and cells engineered to express WT JAK2 or JAK2V617F; conditions: cited from earlier work
[3] = GI-related treatment-emergent adverse events, fed vs fasting state; format: in vivo, human; conditions: subjects receiving 500 mg fedratinib
Experimental: (§7) Thus, fedratinib can be taken with or without regard to food. Moreover, the most frequently reported gastrointestinal (GI)-related treatment-emergent adverse events, such as nausea and vomiting, are less frequent in the fed state (62.5% and 16.7%,) than in the fasting state (87.5% and 66.7%) in subjects receiving a 500 mg fedratinib. Therefore, administration in the fed state, i.e., with nutritional supplement can reduce the incidence of nausea and vomiting.

STAT3/STAT5 = conditions: patient-derived cell lines expressing JAK2V617F and cells engineered to express WT JAK2 or JAK2V617F; cited from earlier work
[4] = Safety and tolerability in the Phase 1 study; format: in vivo, human; conditions: healthy adult subjects, fedratinib 400 mg, Parts 1 and 2
Excerpt: During the study, blood samples will be collected at prespecified times for PK. Subject safety will be monitored throughout the study. The study will be conducted in compliance with the International Council on Harmonization (ICH) of Technical Requirements for Registration of Pharmaceuticals for Human Use/Good Clinical Practice (GCP) and applicable regulatory requirements.

[5] = Phase 1 crossover relative bioavailability study, Part 1: fedratinib plasma PK; format: in vivo, human; conditions: for AUC0-t / Cmax: plasma
Experimental: as §1
as §2, with “Part 1” for “Part 2”, “randomized, 2-period, 2-sequence,” for “randomized, 3-period, 6-sequence,”, “throughout both” for “throughout all”
as §3
Each subject will receive the following treatments across 2 study periods: • Treatment 1A=oral administration of a single 400-mg dose of fedratinib (4×100-mg capsules) with a nutritional supplement (reference) • Treatment 1B=oral administration of a single 400-mg dose of fedratinib with contents of 4×100-mg capsules dispersed in a nutritional supplement (test)
as §4, §5, §6
Fedratinib plasma PK parameters will be calculated using noncompartmental methods. The following key PK parameters will be estimated as allowed by the data: • Maximum observed plasma concentration (Cmax) • Area under the plasma concentration-time curve (AUC) from time zero to the last
To estimate the RBA for Treatments 1B in comparison with Treatment 1A, an ANOVA with treatment, period, and sequence as fixed effects, and subject nested within sequence as a random effect will be performed on the natural log-transformed Cmax, AUC (0-T), and AUC (INF). The geometric means along with ratios of the geometric means (test/reference) and associated 90% confidence intervals will be presented.

[6] = Population pharmacokinetics analysis of cumulative data from 452 patients; format: in vivo, human; conditions: age 20 to 95 years, body weight 40 to 135 kg
[7] = Effect of meals on fedratinib pharmacokinetics; format: in vivo, human; conditions: high-fat, high-calorie meal (approx. 815 calories, 52% fat) and low-fat, low-calorie meal (approx. 162 calories, 6% fat)
Experimental: as §7

JAK2V617F-driven MPNs = conditions: mouse models of JAK2V617F-driven MPNs; cited from earlier work
[8] = Treatment 2A: fedratinib 400 mg oral capsules with nutritional supplement
[9] = Treatment 2B (via NG tube) vs Treatment 2A (capsules orally), 400 mg single dose
[10] = Treatment 2B: fedratinib 400 mg in supplement via NG tube
[11] = Treatment 2C (divided dose) vs Treatment 2A (single dose)
[12] = Treatment 2C: fedratinib 2 × 200 mg capsules, divided dose
[13] = Treatment 1A: fedratinib 400 mg oral capsules with nutritional supplement, n = 27, geometric mean
[14] = Treatment 1B (dispersed in nutritional supplement) vs Treatment 1A (intact capsules), 400 mg single dose
[15] = Treatment 1B: fedratinib 400 mg dispersed in supplement, oral, n = 27, geometric mean

Cc1cnc(Nc2ccc(OCCN3CCCC3)cc2)nc1Nc1cccc(S(=O)(=O)NC(C)(C)C)c1 [fedratinib, N-tert-butyl-3-[(5-methyl-2-{[4-(2-pyrrolidin-1-ylethoxy)phenyl]amino}pyrimidin-4-yl)amino] benzenesulfonamide dihydrochloride monohydrate]
differences in exposure to fedratinib compared to a single dose of 4×100 mg capsules administered orally ([1]; 400 mg, healthy adult participants, with nutritional supplement, via NG tube, or divided capsule dose): no significant differences
AUC0-∞ [1, 8]: 24963 ng·h/mL
AUC0-t [1, 8]: 22683 ng·h/mL
Cmax [1, 8]: 1388 ng/mL
ratio of geometric means between test and reference, AUC (0-T) [1, 9]: 84%
ratio of geometric means between test and reference, AUC (INF) [1, 9]: 85%
ratio of geometric means between test and reference, Cmax [1, 9]: 90%
AUC0-∞ [1, 10]: 21334 ng·h/mL
AUC0-t [1, 10]: 19111 ng·h/mL
Cmax [1, 10]: 1246 ng/mL
ratio of geometric means between test and reference, AUC (0-T) [1, 11]: 84%
ratio of geometric means between test and reference, AUC (INF) [1, 11]: 85%
ratio of geometric means between test and reference, Cmax [1, 11]: 46%
AUC0-∞ [1, 12]: 21304 ng·h/mL
AUC0-t [1, 12]: 19002 ng·h/mL
Cmax [1, 12]: 641.4 ng/mL
apoptosis [2]: increased
cell proliferation [2]: inhibited
frequency of nausea (GI-related treatment-emergent adverse event) ([3]; fasting state): 87.5%
frequency of vomiting (GI-related treatment-emergent adverse event) ([3]; fasting state): 66.7%
frequency of nausea (GI-related treatment-emergent adverse event) ([3]; fed state): 62.5%
frequency of vomiting (GI-related treatment-emergent adverse event) ([3]; fed state): 16.7%
phosphorylation of STAT3/STAT5 (STAT3/STAT5): reduced
safety signals or treatment-emergent serious adverse events [4]: No new safety signals or treatment-emergent serious adverse events were reported
AUC0-∞ ([5]; Treatment 1A: fedratinib 400 mg oral capsules with nutritional supplement, geometric mean, one participant excluded (pAUCe >20%)): 22260 ng·h/mL
AUC0-t [5, 13]: 20127 ng·h/mL
Cmax [5, 13]: 1319 ng/mL
ratio of geometric means (test/reference), AUC (0-T) [5, 14]: 102%
ratio of geometric means (test/reference), AUC (INF) [5, 14]: 103%
ratio of geometric means (test/reference), Cmax [5, 14]: 108%
AUC0-∞ [5, 15]: 22838 ng·h/mL
AUC0-t [5, 15]: 20598 ng·h/mL
Cmax [5, 15]: 1425 ng/mL
effect on fedratinib PK of age, race, sex, body weight, mild or moderate hepatic impairment, mild renal impairment [6]: no clinically meaningful effect
effect on the pharmacokinetics of fedratinib of administration with a meal [7]: No clinically meaningful effect
disease-associated symptoms, including leukopenia, anemia, splenomegaly, and fibrosis (JAK2V617F-driven MPNs): improved
phosphorylation of STAT⅗ (JAK2V617F-driven MPNs): blocked
survival (JAK2V617F-driven MPNs): increased
